The values below come from ChEMBL document CHEMBL4138237, “Activation of anti-oxidant Nrf2 signaling by enone analogues of curcumin” (Eur J Med Chem, 2018).

The source made the active and inactive calls.

In data set [1] the target is T1, Nuclear factor erythroid 2-related factor 2 (Homo sapiens) (UniProt Q16236).
T1 sequence (whole entry): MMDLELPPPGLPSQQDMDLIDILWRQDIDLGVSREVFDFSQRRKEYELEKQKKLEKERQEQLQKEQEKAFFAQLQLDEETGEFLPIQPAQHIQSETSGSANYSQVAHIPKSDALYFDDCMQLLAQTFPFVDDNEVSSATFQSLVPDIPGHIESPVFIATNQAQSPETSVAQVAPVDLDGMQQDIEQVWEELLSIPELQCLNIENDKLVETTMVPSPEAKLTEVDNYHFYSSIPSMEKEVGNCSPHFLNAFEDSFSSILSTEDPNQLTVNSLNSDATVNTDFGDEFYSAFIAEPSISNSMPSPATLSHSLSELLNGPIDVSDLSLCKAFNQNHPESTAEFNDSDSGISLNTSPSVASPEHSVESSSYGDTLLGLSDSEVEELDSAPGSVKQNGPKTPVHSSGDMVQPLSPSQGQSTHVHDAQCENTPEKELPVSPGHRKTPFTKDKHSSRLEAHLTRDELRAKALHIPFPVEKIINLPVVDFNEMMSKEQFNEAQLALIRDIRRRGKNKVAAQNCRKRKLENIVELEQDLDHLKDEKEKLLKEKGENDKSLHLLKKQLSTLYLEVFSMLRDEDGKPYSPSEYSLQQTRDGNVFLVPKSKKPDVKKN
In words: Activation of Nrf2 (unknown origin) expressed in human HepG2 cells at 15 uM after 5 hrs by ARE-driven luciferase reporter gene assay relative to control. In kind it is cell-based.

Data set [2] deals with Luciferin 4-monooxygenase (Photinus pyralis, UniProt P08659). Description: Effect on firefly luciferase activity expressed in human HepG2 cells at low concentration after 5 hrs by luminescence assay. As to conditions: hepg2, 5 h. The format is ADME, cell-based.
Chain of Luciferin 4-monooxygenase (P08659 whole entry): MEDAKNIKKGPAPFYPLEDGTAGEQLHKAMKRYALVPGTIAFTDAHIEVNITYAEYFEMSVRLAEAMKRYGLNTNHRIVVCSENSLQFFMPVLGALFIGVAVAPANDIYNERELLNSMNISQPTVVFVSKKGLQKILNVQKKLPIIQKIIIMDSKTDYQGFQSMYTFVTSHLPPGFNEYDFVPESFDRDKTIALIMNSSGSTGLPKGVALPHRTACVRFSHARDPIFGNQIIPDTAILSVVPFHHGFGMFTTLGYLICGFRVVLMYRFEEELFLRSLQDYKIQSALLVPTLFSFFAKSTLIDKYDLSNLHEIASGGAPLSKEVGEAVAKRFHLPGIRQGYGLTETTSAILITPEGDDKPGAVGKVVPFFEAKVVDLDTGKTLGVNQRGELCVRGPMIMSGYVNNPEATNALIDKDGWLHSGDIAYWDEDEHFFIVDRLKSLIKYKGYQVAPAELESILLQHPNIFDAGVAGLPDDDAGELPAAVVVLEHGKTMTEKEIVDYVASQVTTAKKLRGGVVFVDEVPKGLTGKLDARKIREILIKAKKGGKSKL

In data set [1], `COc1cc(/C=C2\CCC/C(=C\c3cc(OC)cc(OC)c3)C2=O)cc(OC)c1` yielded a fold change (FC) of 22.1. In data set [2], the Activity result is listed as “Non-Toxic”.
In the same order, the values of `COc1cc(/C=C/C(=O)/C=C/c2ccc(O)c(OC)c2)ccc1O` are 25.1 and “Non-Toxic”.
In the case of `CN1C/C(=C\c2cccc(C(F)(F)F)c2)C(=O)/C(=C/c2cccc(C(F)(F)F)c2)C1`, in data set [1], the outcome was Active. In data set [2], the Activity entry is recorded as “Non-Toxic”.
In the same order, the values of `O=C1/C(=C/c2c(Cl)cccc2Cl)CCC/C1=C\c1c(Cl)cccc1Cl` are “Active” and “Non-Toxic”.
In the same order, the values of `O=C(/C=C/c1ccccc1C(F)(F)F)/C=C/c1ccccc1C(F)(F)F` are “inactive” and “Non-Toxic”.
Turning to `COc1cc(/C=C/C(=O)c2ccc(O)c(OC)c2)ccc1O`, in data set [1], the outcome was Active. In addition, the Activity result in data set [2] is listed as “Non-Toxic”.
For `O=C(/C=C/c1ccc(Br)cc1)CC(=O)/C=C/c1ccc(Br)cc1`, in that order: “inactive” and “Non-Toxic”.
For `O=C(/C=C/c1ccccc1)/C=C/c1ccccc1`, in that order: “Active” and “Non-Toxic”.
In the same order, the values of `COc1ccc(/C=C/C(=O)CC(=O)/C=C/c2ccc(OC)c(O)c2)cc1O` are “Active” and “Non-Toxic”.
Turning to `O=C(/C=C/c1cccc([N+](=O)[O-])c1)CC(=O)/C=C/c1cccc([N+](=O)[O-])c1`, the outcome in data set [1] was inactive. For the same compound, the Activity result in data set [2] was “Non-Toxic”.
`COc1ccc(/C=C/C(=O)CC(=O)/C=C/c2ccc(OC)cc2)cc1`: the result in data set [1] was Active. Besides, the Activity result in data set [2] is “Non-Toxic”.
Regarding `O=C(/C=C/c1ccccc1Cl)/C=C/c1ccccc1Cl`, in data set [1], the result was Active. For the same compound, in data set [2], the Activity result is recorded as “Non-Toxic”.
For `CC(C)c1ccc(/C=C2\CN(C)C/C(=C\c3ccc(C(C)C)cc3)C2=O)cc1`, in that order: “Active” and “Non-Toxic”.
For the compound `CN(C)c1ccc(/C=C/C(=O)/C=C/c2ccc(N(C)C)cc2)cc1`, the result in data set [1] was inactive. In addition, the Activity result in data set [2] is “Non-Toxic”.
As to `CCc1c(/C=C/C(=O)/C=C/c2ccc(OC)c(OC)c2CC)ccc(OC)c1OC`, in data set [1], the result was Active. For the same compound, the Activity result in data set [2] is given as “Non-Toxic”.
With `COc1ccc(/C=C/C(=O)CC(=O)/C=C/c2ccc(OC)cc2OC)c(OC)c1`, the result in data set [1] was Active. Also, in data set [2], the Activity result is listed as “Non-Toxic”.
Consider `Cc1cccc(/C=C2\CN(C)C/C(=C\c3cccc(C)c3)C2=O)c1`, for which the outcome in data set [1] was Active. For the same compound, in data set [2], the Activity result is given as “Non-Toxic”.
